US4758577A, “4-(5H-dibenzo[a,d]cyclohepten-5-yl)piperidine compounds for treating cardiovascular disorders” (Merck & Co., Inc., priority 1984, dated 1988)

System: vascular smooth muscle
Test: inhibition of calcium induced contraction of tracheal smooth muscle or vascular tissue (segments of vascular smooth muscle in a tissue bath, depolarized, 0.1 mM calcium chloride re-added)
Format: cell-based, male Sprague-Dawley rats
Conditions: Rattus norvegicus; 10^-7 M; second contraction vs initial contraction
Experimental: The property may be observed in a test in which segments of vascular smooth muscle obtained from male Sprague-Dawley rats are suspended in physiological salt solution in a tissue bath instrumented for recording contractions. After the tissue has been equilibrated, washed in calcium-free physiological salt solution and depolarized, 0.1 mM calcium chloride is re-added to induce contraction. After the contraction has reached a plateau, tissues are washed and a test compound or vehicle is added to determine the effect on a second contraction achieved by the above cyclic protocol. From measuring the initial contraction as well as the second contraction in the presence of the first compound, the extent of inhibition may be calculated.

CN(C)c1ccc(CN2CCC(C3c4ccccc4C=Cc4ccccc43)CC2)cc1 [4-(5H-Dibenzo[a,d]cyclohepten-5-yl)-1-(4-dimethylaminobenzyl)piperidine]
inhibition at 0.1 µM: 69%

C(=Cc1ccccc1)CN1CCC(C2c3ccccc3C=Cc3ccccc32)CC1 [4-(5H-Dibenzo[a,d]cyclohepten-5-yl)-1-cinnamylpiperidine]
inhibition at 0.1 µM: 70%

COc1cc(C=CCN2CCC(C3c4ccccc4C=Cc4ccccc43)CC2)cc(OC)c1OC [4-(5H-Dibenzo[a,d]cyclohepten-5-yl)-1-(3-(3,4,5-trimethoxyphenyl)prop-2-en-1-yl)piperidine]
inhibition at 0.1 µM: 68%
